Results from ChEMBL document CHEMBL2413036, “Isoswinholide B and swinholide K, potently cytotoxic dimeric macrolides from Theonella swinhoei” (Bioorg Med Chem, 2013).

Experiments:
HepG2 [1] = assay: Antiproliferative activity against human HepG2 cells assessed as cell growth inhibition at 100 nM after 48 hrs by MTT assay relative to swinholide-A; format: functional
HepG2 [2] = assay: Antiproliferative activity against human HepG2 cells after 48 hrs by MTT assay; format: functional, cell-based; conditions: HepG2, 48 h

Compound | Efficacy (HepG2 [1]) [%] | IC50 (HepG2 [2]) [nM]
CO[C@H]1C[C@H](CC[C@H](C)[C@H](O)[C@H](C)[C@H]2OC(=O)/C=C/C(C)=C/C[C@H](O)C[C@@H]3C=CC[C@@H](C[C@H](OC)[C@@H](C)[C@@H](O)C[C@@H](O)[C@H](C)[C@@H]([C@@H](C)[C@@H](O)[C@@H](C)CC[C@H]4C[C@H](OC)C[C@H](C)O4)OC(=O)/C=C/C(C)=C/C[C@H](O)C[C@@H]4C=CC[C@@H](C[C@H](O)[C@@H](C)[C@@H](O)C[C@@H](O)[C@@H]2C)O4)O3)O[C@@H](C)C1 | 45.35 | 30
CO[C@H]1C[C@H](CC[C@H](C)[C@H](O)[C@H](C)[C@@H](O)[C@@H](C)[C@H]2C[C@H](O)[C@H](C)[C@@H](OC)C[C@@H]3CC=C[C@@H](C[C@@H](O)C/C=C(C)/C=C/C(=O)O[C@H]([C@@H](C)[C@@H](O)[C@@H](C)CC[C@H]4C[C@H](OC)C[C@H](C)O4)[C@@H](C)[C@H](O)C[C@H](O)[C@H](C)[C@@H](OC)C[C@@H]4CC=C[C@@H](C[C@@H](O)C/C=C(C)/C=C/C(=O)O2)O4)O3)O[C@@H](C)C1 | 7.52 | 1500
C=C1/C=C/C(=O)O[C@H]([C@@H](C)[C@@H](O)[C@@H](C)CC[C@H]2C[C@H](OC)C[C@H](C)O2)[C@@H](C)[C@H](O)C[C@H](O)[C@H](C)[C@@H](OC)C[C@@H]2CC=C[C@@H](C[C@@H](O)C/C=C(C)/C=C/C(=O)O[C@H]([C@@H](C)[C@@H](O)[C@@H](C)CC[C@H]3C[C@H](OC)C[C@H](C)O3)[C@@H](C)[C@H](O)C[C@H](O)[C@H](C)[C@@H](OC)C[C@@H]3CC=C[C@@H](C[C@@H](O)C[C@H]1O)O3)O2 | 42.67 | 15
CO[C@H]1C[C@H](CC[C@H](C)[C@H](O)[C@H](C)[C@H]2OC(=O)/C=C/C(C)=C/C[C@H](O)C[C@@H]3CCC[C@H](C[C@H](OC)[C@@H](C)[C@@H](O)C[C@@H](O)[C@H](C)[C@H](O)[C@@H](C)[C@H]([C@@H](C)CC[C@H]4C[C@H](OC)C[C@H](C)O4)OC(=O)/C=C/C(C)=C/C[C@H](O)C[C@@H]4C=CC[C@H](C[C@H](OC)[C@@H](C)[C@@H](O)C[C@@H](O)[C@@H]2C)O4)O3)O[C@@H](C)C1 [ISOSWINHOLIDE A] | 16.28 | 35
CO[C@@H]1C[C@@H](O)C[C@@H](O)[C@H](C)[C@@H]([C@@H](C)[C@@H](O)[C@@H](C)CC[C@H]2C[C@H](OC)C[C@H](C)O2)OC(=O)/C=C/C(C)=C/C[C@H](O)C[C@@H]2C=CC[C@H](C[C@H](OC)[C@@H](C)[C@@H](O)C[C@@H](O)[C@H](C)[C@@H]([C@@H](C)[C@@H](O)[C@@H](C)CC[C@H]3C[C@H](OC)C[C@H](C)O3)OC(=O)/C=C/C(C)=C/C[C@H](O)C[C@@H]3CCC[C@H](C1)O3)O2 [SWINHOLIDE B] | 89.38 | 25
CO[C@H]1C[C@H](CC[C@H](C)[C@H](O)[C@H](C)[C@H]2OC(=O)/C=C/C(C)=C/C[C@H](O)C[C@@H]3C=CC[C@@H](C[C@H](OC)[C@@H](C)[C@@H](O)C[C@@H](O)[C@H](C)[C@@H]([C@@H](C)[C@@H](O)[C@@H](C)CC[C@H]4C[C@H](OC)C[C@H](C)O4)OC(=O)/C=C/C(C)=C/C[C@H](O)C[C@@H]4C=CC[C@@H](C[C@H](OC)[C@@H](C)[C@@H](O)C[C@@H](O)[C@@H]2C)O4)O3)O[C@@H](C)C1 [Swinholide A] | – | 20
